Read-outs that look alike come from different tables or passages of the source.

One data set relates to CT26.CL25 cells. Nature of the data set: CT26.CL25 colon cancer model in B6 mice with/without CD8 depletion. In kind it is in vivo. The following applies: CT26.CL25 s.c. in B6 mice, MC180295 20 mg/kg i.p. q.o.d., DAC 0.5 mg/kg i.p. daily. The method, then: Fig. 5 Survival and antitumor effects of MC180295, DAC, or their combination, with/without CD8 + T cells. A 20 mg/kg MC180295 was administered (i.p.) q.o.d. 0.5 mg/kg DAC was administered (i.p.) daily. Mouse survival in days. B Survival of B6 mice, after CD8 depletion, using an anti-CD8 antibody. 20 mg/kg MC180295 was administered (i.p.) q.o.d. 0.5 mg/kg DAC was administered (i.p.) daily. C Antitumor effects of MC180295 with and without CD8 depletion, using an anti-CD8 antibody. B6 mice were inoculated (s.c.) with 5 × 10^5 CT26.CL25 cells. Eight days later, when tumors were palpable, 20 mg/kg MC180295 was administered (i.p.) q.o.d. 0.5 mg/kg DAC was administered (i.p.) daily. Tumor sizes were measured using a caliper and calculated over vehicle. D Antitumor effects of DAC, with and without CD8 depletion, using an anti-CD8 antibody. B6 mice were inoculated (s.c.) with 5 × 10^5 CT26.CL25 cells. Eight days later, when tumors were palpable, 20 mg/kg MC180295 was administered (i.p.) q.o.d. 0.5 mg/kg DAC was administered (i.p.) daily. Tumor sizes were measured using a caliper and calculated over vehicle. E Antitumor effects of DAC + MC180295, with and without CD8 depletion, using an anti-CD8 antibody. B6 mice were inoculated (s.c.) with 5 × 10^5 CT26.CL25 cells. Eight days later, when tumors were palpable, 20 mg/kg MC180295 was administered (i.p.) q.o.d. 0.5 mg/kg DAC was administered (i.p.) daily. Tumor sizes were measured using a caliper and calculated over vehicle. Significances were calculated using log-rank (Mantel-Cox) or Student's T tests. Data shown as means ± SEMs
For the s.c. SW48 model, 2 × 10^6 cells were injected into the flanks of randomly assigned, gender-matched 8–10-week-old NSG mice. 20 mg/kg MC180379, MC180380, or MC180295 was injected (i.p.), every other day, when the tumors were palpable, 11 days after engraftment, until endpoints were met. Mice were sacrificed before tumor volumes exceeded 400 mm^2 (endpoint for this model). For the s.c. HT29 model, 2 × 10^6 cells were injected into the flanks of randomly assigned, gender-matched, 8–10-week-old NSG mice. […]

The next data set in a line: Pharmacokinetics in rats. In kind it is in vivo. The conditions noted are these: rat, plasma, iv, 1 mg/kg; for AUC(0-t): read-out: AUC24hr; for Vd: read-out: Vss.

As usually defined, the Cmax is the maximum level reached in the sampled fluid or tissue. By clearance is commonly meant a measure of how efficiently the substance is removed, as volume per time. A lower clearance goes with inefficient removal. On to `Nc1nc(N[C@H]2C[C@@H]3CC[C@H]2C3)sc1C(=O)c1ccccc1[N+](=O)[O-]` (relative stereo) [MC180295], for which the survival result in the data set with CT26.CL25 cells is reported as “extended survival”. For the same compound, the tumor size result in the data set on CT26.CL25 cells was “significantly decreased tumor size”. In addition, the half-life in the data set “Pharmacokinetics in rats” (given IV to rats, read-out: half-life (converted)) is about 840 min; in “Pharmacokinetics in rats” (rats, IV 1 mg/kg, Mean, read-out: T1/2 (converted)), 838 min; in the data set “Pharmacokinetics in rats” (rats, IV 1 mg/kg, Rat -1, read-out: T1/2 (converted)), 1070 min; in “Pharmacokinetics in rats” (rats, IV 1 mg/kg, Rat -2, read-out: T1/2 (converted)), 599 min; in “Pharmacokinetics in rats” (rats, IV 1 mg/kg, Rat -3, read-out: T1/2 (converted)), 840 min. Further, the highest concentration (Cmax) in the data set “Pharmacokinetics in rats” (rats, IV 1 mg/kg, Mean) was 635 ng/mL; in “Pharmacokinetics in rats” (rats, IV 1 mg/kg, Rat -1) it was 385 ng/mL; in the data set “Pharmacokinetics in rats” (rats, IV 1 mg/kg, Rat -2) it was 568 ng/mL; in the data set “Pharmacokinetics in rats” (rats, IV 1 mg/kg, Rat -3), 951 ng/mL. The clearance in the data set “Pharmacokinetics in rats” (rats, IV 1 mg/kg, Mean) was 5.2 mL/min; in “Pharmacokinetics in rats” (rats, IV 1 mg/kg, Rat -1), 6.4 mL/min; in “Pharmacokinetics in rats” (rats, IV 1 mg/kg, Rat -2) it was 5.1 mL/min; in the data set “Pharmacokinetics in rats” (rats, IV 1 mg/kg, Rat -3), 4.1 mL/min. Also, the AUC(0-t) stood at 679 ng·h/mL in “Pharmacokinetics in rats” (rats, IV 1 mg/kg, Mean); 470 ng·h/mL in “Pharmacokinetics in rats” (rats, IV 1 mg/kg, Rat -1); 687 ng·h/mL in “Pharmacokinetics in rats” (rats, IV 1 mg/kg, Rat -2); 879 ng·h/mL in “Pharmacokinetics in rats” (rats, IV 1 mg/kg, Rat -3). The Vd came out at 4.46 L in the data set “Pharmacokinetics in rats” (rats, IV 1 mg/kg, Mean); 6.87 L in “Pharmacokinetics in rats” (rats, IV 1 mg/kg, Rat -1); 3.74 L in “Pharmacokinetics in rats” (rats, IV 1 mg/kg, Rat -2); 2.76 L in “Pharmacokinetics in rats” (rats, IV 1 mg/kg, Rat -3).
